The values below are quoted from earlier work in patent US9683982B2, “Method for diagnosis and/or prognosis of cancers by analysis of the mechanical properties of tumor cells” (Universität Leipzig, priority 2010, dated 2017).

The data set relates to cells of the cell line MCF7. The note with it: addition of 100 nmol/l TPA for 18 h in culture.

Consider `CCCCCCCCCCCCCC(=O)O[C@@H]1[C@@H](C)[C@@]2(O)[C@@H](C=C(CO)C[C@]3(O)C(=O)C(C)=C[C@@H]23)[C@@H]2C(C)(C)[C@]12OC(C)=O` [TPA, 12-O-tetradecanoylphorbol-13-acetate], for which the “invasive potential and metastasis-forming potential” value was “significant increase”.
